Assay results from ChEMBL document CHEMBL1144945, “Development of progesterone receptor antagonists from 1,2-dihydrochromeno[3,4-f]quinoline agonist pharmacophore” (Bioorg Med Chem Lett, 2003).
Calls of active or inactive are those of the source. The calls are words filed in the database; no cut-off is given here.

Assays:
[1] = molecular target: T1, Androgen receptor (Homo sapiens, UniProt P10275); assay: Inhibition of antagonist activity towards human androgen receptor; assay type: functional
T1 sequence (P10275 whole entry): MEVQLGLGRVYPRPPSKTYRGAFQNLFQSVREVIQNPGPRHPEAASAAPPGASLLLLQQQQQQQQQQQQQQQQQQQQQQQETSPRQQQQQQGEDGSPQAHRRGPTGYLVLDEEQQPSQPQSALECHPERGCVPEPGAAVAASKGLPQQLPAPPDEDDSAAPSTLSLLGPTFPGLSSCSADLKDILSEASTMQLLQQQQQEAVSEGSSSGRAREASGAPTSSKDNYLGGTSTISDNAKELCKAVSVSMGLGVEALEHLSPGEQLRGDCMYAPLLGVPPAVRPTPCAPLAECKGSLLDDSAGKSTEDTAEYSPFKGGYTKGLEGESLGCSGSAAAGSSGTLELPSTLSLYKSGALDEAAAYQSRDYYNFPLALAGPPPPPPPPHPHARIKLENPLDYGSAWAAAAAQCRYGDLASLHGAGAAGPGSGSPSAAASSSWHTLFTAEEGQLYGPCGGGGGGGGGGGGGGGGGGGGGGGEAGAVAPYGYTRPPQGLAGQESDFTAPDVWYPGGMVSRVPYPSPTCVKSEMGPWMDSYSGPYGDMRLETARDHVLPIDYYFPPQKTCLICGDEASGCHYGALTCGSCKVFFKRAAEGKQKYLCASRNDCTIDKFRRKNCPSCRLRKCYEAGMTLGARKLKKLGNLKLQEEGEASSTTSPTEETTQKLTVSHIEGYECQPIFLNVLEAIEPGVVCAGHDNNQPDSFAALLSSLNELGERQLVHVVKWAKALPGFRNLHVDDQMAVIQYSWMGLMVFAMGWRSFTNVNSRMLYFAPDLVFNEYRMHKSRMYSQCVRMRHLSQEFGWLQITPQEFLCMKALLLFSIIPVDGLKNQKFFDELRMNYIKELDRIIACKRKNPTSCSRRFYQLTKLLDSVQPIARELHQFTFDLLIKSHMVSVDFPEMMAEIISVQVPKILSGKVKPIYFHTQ

[2] = molecular target: T2, Glucocorticoid receptor (Homo sapiens, UniProt P04150); assay: Inhibition of antagonist activity towards glucocorticoid receptor; not active; assay type: functional
T2 sequence (P04150 whole entry): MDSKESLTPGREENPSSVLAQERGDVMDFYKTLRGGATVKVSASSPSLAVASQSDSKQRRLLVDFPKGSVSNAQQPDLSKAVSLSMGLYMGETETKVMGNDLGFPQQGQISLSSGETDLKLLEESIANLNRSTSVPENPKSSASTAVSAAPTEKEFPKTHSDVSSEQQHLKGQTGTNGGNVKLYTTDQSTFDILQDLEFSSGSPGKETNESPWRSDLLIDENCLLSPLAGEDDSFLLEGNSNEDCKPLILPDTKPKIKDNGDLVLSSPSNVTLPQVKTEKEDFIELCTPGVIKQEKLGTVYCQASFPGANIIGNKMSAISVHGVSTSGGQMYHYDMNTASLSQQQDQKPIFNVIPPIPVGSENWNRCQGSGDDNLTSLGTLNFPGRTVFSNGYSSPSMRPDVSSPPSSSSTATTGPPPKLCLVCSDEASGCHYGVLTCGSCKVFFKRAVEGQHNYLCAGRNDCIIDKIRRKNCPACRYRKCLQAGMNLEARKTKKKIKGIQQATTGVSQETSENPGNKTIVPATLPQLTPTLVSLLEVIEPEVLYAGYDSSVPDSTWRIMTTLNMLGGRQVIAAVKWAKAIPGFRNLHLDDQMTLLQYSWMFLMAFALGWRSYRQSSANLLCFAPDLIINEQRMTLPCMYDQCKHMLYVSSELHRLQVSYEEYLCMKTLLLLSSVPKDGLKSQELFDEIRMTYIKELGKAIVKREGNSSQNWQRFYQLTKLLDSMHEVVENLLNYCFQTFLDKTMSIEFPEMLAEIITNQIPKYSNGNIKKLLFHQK

[3] = molecular target: T2, Glucocorticoid receptor; assay: Inhibition of antagonist activity towards glucocorticoid receptor; assay type: functional
[4] = molecular target: T1, Androgen receptor
Description: Inhibition of antagonist activity towards Androgen receptor

[5] = molecular target: T3, Androgen receptor (Homo sapiens) (UniProt P10275); assay: Antagonist efficacy for human sndrogen receptor; assay type: functional
T3 sequence (whole entry): T1 sequence (P10275 whole entry)

[6] = molecular target: T1, Androgen receptor; assay: Inhibition of antagonist activity towards human Androgen receptor; assay type: functional
[7] = molecular target: T4, Glucocorticoid receptor (Homo sapiens) (UniProt P04150); assay: Antagonist efficiency for glucocorticoid (hGR) receptor; assay type: functional
T4 sequence (whole entry): T2 sequence (P04150 whole entry)

[8] = molecular target: T2, Glucocorticoid receptor; assay: Inhibition of antagonist activity towards glucocorticoid (hGR) receptor; assay type: functional
[9] = molecular target: Estrogen receptor (Homo sapiens) (UniProt Q92731+P03372); assay: Antagonist efficacy for estrogen (hER) receptor; Not active; assay type: functional
[10] = molecular target: T5, Progesterone receptor (Homo sapiens, UniProt P06401); assay: Effective concentration for antagonistic activity towards human progesterone in CV-1 cells; assay type: functional, cell-based
T5 sequence (P06401 whole entry): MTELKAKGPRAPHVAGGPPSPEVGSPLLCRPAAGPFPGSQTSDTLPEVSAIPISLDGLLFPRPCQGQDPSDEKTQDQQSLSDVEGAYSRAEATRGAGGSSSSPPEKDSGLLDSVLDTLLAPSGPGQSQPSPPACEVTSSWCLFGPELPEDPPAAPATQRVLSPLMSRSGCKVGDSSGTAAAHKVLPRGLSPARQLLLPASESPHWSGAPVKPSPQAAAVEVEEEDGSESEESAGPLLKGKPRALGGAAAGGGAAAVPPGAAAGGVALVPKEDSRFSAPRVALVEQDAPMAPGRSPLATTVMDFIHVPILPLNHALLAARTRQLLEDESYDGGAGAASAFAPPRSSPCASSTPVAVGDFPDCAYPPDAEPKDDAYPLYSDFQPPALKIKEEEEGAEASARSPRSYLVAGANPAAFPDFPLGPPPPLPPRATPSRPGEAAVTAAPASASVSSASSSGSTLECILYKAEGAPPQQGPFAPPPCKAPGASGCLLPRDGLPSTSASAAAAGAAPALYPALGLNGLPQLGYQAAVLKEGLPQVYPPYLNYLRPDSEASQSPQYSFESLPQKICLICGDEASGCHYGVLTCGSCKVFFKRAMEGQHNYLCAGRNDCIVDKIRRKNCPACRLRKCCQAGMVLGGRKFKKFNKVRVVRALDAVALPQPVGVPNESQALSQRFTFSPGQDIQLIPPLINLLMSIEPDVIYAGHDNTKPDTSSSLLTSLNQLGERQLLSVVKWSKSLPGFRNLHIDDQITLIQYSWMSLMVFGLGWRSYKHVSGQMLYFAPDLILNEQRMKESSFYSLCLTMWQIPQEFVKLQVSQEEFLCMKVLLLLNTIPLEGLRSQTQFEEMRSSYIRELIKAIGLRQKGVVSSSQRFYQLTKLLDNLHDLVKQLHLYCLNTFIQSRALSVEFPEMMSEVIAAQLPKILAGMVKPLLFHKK

[11] = molecular target: T6, Progesterone receptor (Homo sapiens) (UniProt P06401); assay: Antagonist efficacy for human progesterone in CV-1 cells; assay type: functional, cell-based
T6 sequence (whole entry): T5 sequence (P06401 whole entry)

[12] = molecular target: T6, Progesterone receptor (Homo sapiens); assay: Agonist efficacy for human progesterone in T47D human breast cancer cell; assay type: functional, cell-based
[13] = molecular target: T6, Progesterone receptor (Homo sapiens); assay: Antagonist efficacy for human progesterone in T47D human breast cancer cell; assay type: functional, cell-based
[14] = molecular target: T5, Progesterone receptor; assay: Inhibition of human progesterone in T47D human breast cancer cell; assay type: cell-based

SMILES: CC1CC(C)(C)Nc2ccc3c(c21)COc1c(F)cc(F)cc1-3 (configuration not stated)
- IC50 [1]: 147 nM
- IC50 [2]: Not Active

SMILES: CC1=CC(C)(C)Nc2ccc3c(c21)COc1c(F)cc(Br)cc1-3
- IC50 [3]: 2170 nM
- IC50 [4]: 90 nM

SMILES: CC1=CC(C)(C)Nc2ccc3c(c21)COc1c(F)cc(Cl)cc1-3
- Efficacy [5]: 79%
- IC50 [6]: 428 nM
- Efficacy [7]: 95%
- IC50 [8]: 753 nM
- Efficacy [9]: inactive
- EC50 [10]: 13.5 nM
- Efficacy [11]: 74%

SMILES: CC1CC(C)(C)Nc2ccc3c(c21)COc1ccc([N+](=O)[O-])cc1-3 (configuration not stated)
- IC50 [3]: 1870 nM
- IC50 [4]: 63 nM

SMILES: CC1=CC(C)(C)Nc2ccc3c(c21)COc1c(F)cc(F)cc1-3
- Efficacy [5]: 87%
- IC50 [6]: 644 nM
- IC50 [8]: 3030 nM
- Efficacy [9]: inactive
- EC50 [10]: 25.4 nM
- Efficacy [12]: 42%
- Efficacy [11]: 83%
- Efficacy [13]: 52%
- IC50 [14]: 86 nM
